{"source": "patent US20250295626A1", "about": "“CARBON MONOXIDE-RELEASING MOLECULE (CORM) OR COMPOSITION THEREOF FOR USE IN THE TREATMENT OR THE PREVENTION OF AN INTESTINAL DYSBIOSIS IN A SUBJECT” (priority 2022, published 2025)", "assay_type_in_all_cases": "in vivo, C57BL6 mice", "key": {"[1]": {"test": "CO accumulation in intestinal tissues after oral administration (hemoCD1 quantification)", "settings": "oral 30 mg/kg", "experimental": "Eight-week-old male C57BL6 mice weighing approximately 25 g were treated with an oral administration of either CORM-401 (30 mg/kg) or PBS (control group) and then sacrificed after 1, 3, 6, 24 and 48 hours (n=6 per time point). Organs were collected to determine the levels of CO accumulation in different intestinal tissues following the two treatments. The body compartments where the intestinal microbiota is most likely to be present such as the caecum, caecum content, colon and faeces were analyzed. CO accumulation was quantified using the CO sensitive scavenger hemoCD1 as previously reported by the inventors such as in Mao et al, 2021 [10]; Minegishi et al, 2017 [11]. Briefly, fifty milligrams of tissue were homogenized in 0.5 ml PBS in the presence of hemoCD1 (2-10 μM) and sodium dithionite (1 mg). Tissue homogenates were first sonicated, then samples were centrifuged, and the supernatants filtered before measurements by UV-VIS absorption spectroscopy. The concentration of CO was calculated from the absorbances at 422 and 434 nm using a reported equation (Kitagishi et al, 2010; Braud et al 2018 [13]). • b) Results"}, "[2]": {"test": "Levels of blood carbon monoxide hemoglobin (COHb) after oral administration", "experimental": "The levels of COHb (carbon monoxide bound to hemoglobin) were measured at different time points after oral administration of CORM-401 in two groups of eight-week-old male C57BL6 mice that were fed either a standard diet (SD) or a high fat diet (HFD) for 14 weeks (n=9-10 per group). CORM-401 was freshly prepared in phosphate buffer solution (PBS) and administered orally at a dose of 30 mg/kg=90 μmoles/kg (n=6) and COHb in blood was measured after 1, 6, 24 and 48 hours. • b) Results"}, "[3]": {"system": "intestinal microbiota of HFD mice", "test": "Abundance of bacterial species of intestinal microbiota in faeces (shotgun metagenomic/metatranscriptomic sequencing)", "experimental": "Eight-week-old male C57BL6 mice weighing approximately 25 g were fed either a standard diet (SD), high fat diet (HFD) or HFD+CORM-401 for 14 weeks (n=9-10 per group). CORM-401 was prepared freshly in phosphate buffer solution (PBS) and administered orally to mice three times a week each time at a dose of (30 mg/kg=90 μmoles/kg) during the entire HFD regime. Faeces from the three groups of mice were then collected after the 14 week HFD regime for microbiota analysis before mice were sacrificed.\nThe stool samples DNA and RNA (n=3 per group) were extracted and the sequencing was carried out by a shotgun metagenomic/metatranscriptomic technique as previously described. Briefly, a pre-extraction step combining mechanical, enzymatic and chemical procedures was performed prior to extraction by means of a QIAsymphony PowerFecal Pro DNA Kit (QIAGEN). The extracts were used for DNA/RNA library preparation and determination of pair-end sequences using a NextSeq500 Instrument (Illumina). Fastq files were analysed by an in-house software MetaMIC (v2.2.0). The data were filtered based on quality (phred score) and the sequences were mapped against several custom databases, counted and collected in a separate Fastq file. Sequence counts were made for each bacterial species and compared to the environmental control. The number of sequences for each species was used to determine their relative abundance in each group of mice. • b) Results"}, "[4]": {"settings": "HFD + CORM, faeces after 14 weeks, 30 mg/kg orally three times a week, average of 3"}, "[5]": {"settings": "HFD mice treated 14 weeks, 30 mg/kg orally three times a week"}}}
{"smiles": "CN(CC(=O)O)C(=S)[S-].[C-]#[O+].[C-]#[O+].[C-]#[O+].[C-]#[O+].[Mn]", "note": "[CORM-401]", "values": [{"measurement": "Time at which the maximum CO content was reached", "setting": "[1]; all compartments (caecum, caecum content, colon, faeces)", "result": 6, "unit": "h"}, {"measurement": "Time after which CO content returned to basal levels", "setting": "[1]; all compartments", "result": 48, "unit": "h"}, {"measurement": "CO accumulation (time-dependent)", "setting": "[1]; caecum tissue, caecum content, colon and faeces, vs PBS control", "result": "significantly accumulated"}, {"measurement": "COHb levels in blood", "setting": "[2]; 1 hour after oral administration of 30 mg/kg, both SD-fed and HFD-fed mice", "result": "significantly increased"}, {"measurement": "Period over which blood COHb gradually decreased to baseline levels", "setting": "[2]; oral 30 mg/kg, SD-fed and HFD-fed mice", "result": 48, "unit": "h"}, {"measurement": "Abundance of Adlercreutzia equolifaciens", "setting": "[3]; [4]", "result": "4445 number of sequences"}, {"measurement": "Abundance of Aerococcus viridans", "setting": "[3]; [4]", "result": "1650 number of sequences"}, {"measurement": "Abundance of Akkermansia muciniphila", "setting": "[3]; [4]", "result": "120300 number of sequences"}, {"measurement": "Abundance of Alistipes finegoldii", "setting": "[3]; [4]", "result": "6727 number of sequences"}, {"measurement": "Abundance of Alistipes shahii", "setting": "[3]; [4]", "result": "9490 number of sequences"}, {"measurement": "Abundance of Bacteroides caecimuris", "setting": "[3]; [4]", "result": "14812 number of sequences"}, {"measurement": "Abundance of Bacteroides cellulosilyticus", "setting": "[3]; [4]", "result": "246 number of sequences"}, {"measurement": "Abundance of Bacteroides dorei", "setting": "[3]; [4]", "result": "3093 number of sequences"}, {"measurement": "Abundance of Bacteroides fragilis", "setting": "[3]; [4]", "result": "3651 number of sequences"}, {"measurement": "Abundance of Bacteroides xylanisolvens", "setting": "[3]; [4]", "result": "1151 number of sequences"}, {"measurement": "Abundance of Barnesiella viscericola", "setting": "[3]; [4]", "result": "350 number of sequences"}, {"measurement": "Abundance of Blautia sp. YL58", "setting": "[3]; [4]", "result": "934 number of sequences"}, {"measurement": "Abundance of Burkholderiales bacterium YL45", "setting": "[3]; [4]", "result": "159 number of sequences"}, {"measurement": "Abundance of Carnobacterium divergens", "setting": "[3]; [4]", "result": "1726 number of sequences"}, {"measurement": "Abundance of Clostridioides difficile", "setting": "[3]; [4]", "result": "1101 number of sequences"}, {"measurement": "Abundance of Clostridium bolteae", "setting": "[3]; [4]", "result": "3559 number of sequences"}, {"measurement": "Abundance of Enterococcus faecalis", "setting": "[3]; [4]", "result": "4655 number of sequences"}, {"measurement": "Abundance of Enterococcus faecium", "setting": "[3]; [4]", "result": "7750 number of sequences"}, {"measurement": "Abundance of Erysipelotrichaceae bacterium I46", "setting": "[3]; [4]", "result": "1788 number of sequences"}, {"measurement": "Abundance of Faecalibacterium prausnitzii", "setting": "[3]; [4]", "result": "3622 number of sequences"}, {"measurement": "Abundance of Faecalibaculum rodentium", "setting": "[3]; [4]", "result": "120296 number of sequences"}, {"measurement": "Abundance of Faecalitalea cylindroides", "setting": "[3]; [4]", "result": "1039 number of sequences"}, {"measurement": "Abundance of Flavonifractor plautii", "setting": "[3]; [4]", "result": "7720 number of sequences"}, {"measurement": "Abundance of Intestinimonas butyriciproducens", "setting": "[3]; [4]", "result": "2426 number of sequences"}, {"measurement": "Abundance of Lachnoclostridium phocaeense", "setting": "[3]; [4]", "result": "2366 number of sequences"}, {"measurement": "Abundance of Lachnoclostridium sp. YL32", "setting": "[3]; [4]", "result": "14254 number of sequences"}, {"measurement": "Abundance of Lactobacillus acidipiscis", "setting": "[3]; [4]", "result": "630 number of sequences"}, {"measurement": "Abundance of Lactobacillus agilis", "setting": "[3]; [4]", "result": "2223 number of sequences"}, {"measurement": "Abundance of Lactobacillus animalis", "setting": "[3]; [4]", "result": "1355 number of sequences"}, {"measurement": "Abundance of Lactobacillus fermentum", "setting": "[3]; [4]", "result": "10256 number of sequences"}, {"measurement": "Abundance of Lactobacillus gallinarum", "setting": "[3]; [4]", "result": "928 number of sequences"}, {"measurement": "Abundance of Lactobacillus gasseri", "setting": "[3]; [4]", "result": "61826 number of sequences"}, {"measurement": "Abundance of Lactobacillus helveticus", "setting": "[3]; [4]", "result": "2955 number of sequences"}, {"measurement": "Abundance of Lactobacillus johnsonii", "setting": "[3]; [4]", "result": "162300 number of sequences"}, {"measurement": "Abundance of Lactobacillus murinus", "setting": "[3]; [4]", "result": "4440 number of sequences"}, {"measurement": "Abundance of Lactobacillus plantarum", "setting": "[3]; [4]", "result": "1011 number of sequences"}, {"measurement": "Abundance of Lactobacillus reuteri", "setting": "[3]; [4]", "result": "339700 number of sequences"}, {"measurement": "Abundance of Lactobacillus ruminis", "setting": "[3]; [4]", "result": "2160 number of sequences"}, {"measurement": "Abundance of Lactobacillus salivarius", "setting": "[3]; [4]", "result": "3546 number of sequences"}, {"measurement": "Abundance of Lactococcus garvieae", "setting": "[3]; [4]", "result": "3953 number of sequences"}, {"measurement": "Abundance of Lactococcus lactis", "setting": "[3]; [4]", "result": "642300 number of sequences"}, {"measurement": "Abundance of Lactococcus piscium", "setting": "[3]; [4]", "result": "4133 number of sequences"}, {"measurement": "Abundance of Libanicoccus massiliensis", "setting": "[3]; [4]", "result": "4193 number of sequences"}, {"measurement": "Abundance of Listeria monocytogenes", "setting": "[3]; [4]", "result": "2783 number of sequences"}, {"measurement": "Abundance of Mordavella sp. Marseille-P3756", "setting": "[3]; [4]", "result": "1240 number of sequences"}, {"measurement": "Abundance of Muribaculum intestinale", "setting": "[3]; [4]", "result": "21500 number of sequences"}, {"measurement": "Abundance of Olsenella sp. Marseille-P2300", "setting": "[3]; [4]", "result": "4915 number of sequences"}, {"measurement": "Abundance of Olsenella uli", "setting": "[3]; [4]", "result": "1483 number of sequences"}, {"measurement": "Abundance of Olsenella umbonata", "setting": "[3]; [4]", "result": "1620 number of sequences"}, {"measurement": "Abundance of Oscillibacter valericigenes", "setting": "[3]; [4]", "result": "1053 number of sequences"}, {"measurement": "Abundance of Parabacteroides goldsteinii", "setting": "[3]; [4]", "result": "43 number of sequences"}, {"measurement": "Abundance of Romboutsia ilealis", "setting": "[3]; [4]", "result": "21923 number of sequences"}, {"measurement": "Abundance of Roseburia intestinalis", "setting": "[3]; [4]", "result": "1190 number of sequences"}, {"measurement": "Abundance of Ruminiclostridium sp. KB18", "setting": "[3]; [4]", "result": "18969 number of sequences"}, {"measurement": "Abundance of Streptococcus thermophilus", "setting": "[3]; [4]", "result": "7718 number of sequences"}, {"measurement": "Abundance of uncultured Firmicutes bacterium", "setting": "[3]; [4]", "result": "1355 number of sequences"}, {"measurement": "Change in the abundance of Alistipes fingoldii", "setting": "[3]; [5]", "result": "marked increase"}, {"measurement": "Change in the abundance of Alistipes shahii", "setting": "[3]; [5]", "result": "marked increase"}, {"measurement": "Change in the abundance of Olsenella uli", "setting": "[3]; [5]", "result": "marked increase"}, {"measurement": "Change in the abundance of Olsenella umbonata", "setting": "[3]; [5]", "result": "marked increase"}, {"measurement": "Change in the abundance of Romboutsia ilealis", "setting": "[3]; [5]", "result": "decrease"}, {"measurement": "Rank of Akkermansia muciniphila in the intestinal bacteria profile", "setting": "[3]; [5]", "result": "among the most dominant species"}, {"measurement": "Overall effect on the intestinal microbiota", "setting": "[3]; HFD mice, oral administration", "result": "reshapes the intestinal microbiota HFD mice towards a healthy phenotype"}]}
